Data reported in ChEMBL document CHEMBL4507264, “Data for DCP probe BAY-7598” (2021).

Columns and labels:
[1] = target: BDNF/NT-3 growth factors receptor (Homo sapiens) (UniProt Q16620); details: Compound concentration 1000.0 nM
[2] = target: Death-associated protein kinase 3 (Homo sapiens) (UniProt O43293); details: Compound concentration 1000.0 nM
[3] = target: Casein kinase II subunit alpha (Homo sapiens) (UniProt P68400); details: Compound concentration 1000.0 nM
[4] = target: Macrophage colony-stimulating factor 1 receptor (Homo sapiens) (UniProt P07333); details: Compound concentration 1000.0 nM
[5] = tested on: Epidermal growth factor receptor (Homo sapiens), P00533 [L861Q]; details: Compound concentration 1000.0 nM
[6] = target: Calcium/calmodulin-dependent protein kinase type IV (Homo sapiens) (UniProt Q16566); details: Compound concentration 1000.0 nM
[7] = target: TGF-beta receptor type-2 (Homo sapiens) (UniProt P37173); details: Compound concentration 1000.0 nM
[8] = target: Tyrosine-protein kinase JAK3 (Homo sapiens) (UniProt P52333); details: Compound concentration 1000.0 nM
[9] = target: Serine/threonine-protein kinase PAK 1 (Homo sapiens) (UniProt Q13153); details: Compound concentration 1000.0 nM
[10] = target: 5-hydroxytryptamine receptor 2A (Homo sapiens) (UniProt P28223); details: Compound concentration 10.0 uM
[11] = tested on: Phosphatidylinositol 4,5-bisphosphate 3-kinase catalytic subunit alpha isoform (Homo sapiens), P42336 [M1043I]; details: Compound concentration 1000.0 nM
[12] = target: Death-associated protein kinase 1 (Homo sapiens) (UniProt P53355); details: Compound concentration 1000.0 nM
[13] = target: Mast/stem cell growth factor receptor Kit (Homo sapiens) (UniProt P10721); details: Compound concentration 1000.0 nM
[14] = target: Tyrosine-protein kinase Fgr (Homo sapiens) (UniProt P09769); details: Compound concentration 1000.0 nM
[15] = target: Serine/threonine-protein kinase Sgk3 (Homo sapiens) (UniProt Q96BR1); details: Compound concentration 1000.0 nM
[16] = target: MAP/microtubule affinity-regulating kinase 3 (Homo sapiens) (UniProt P27448); details: Compound concentration 1000.0 nM
[17] = target: Serine/threonine-protein kinase WNK3 (Homo sapiens) (UniProt Q9BYP7); details: Compound concentration 1000.0 nM
[18] = target: Dual specificity tyrosine-phosphorylation-regulated kinase 1B (Homo sapiens) (UniProt Q9Y463); details: Compound concentration 1000.0 nM
[19] = target: Serine/threonine-protein kinase BRSK1 (Homo sapiens) (UniProt Q8TDC3); details: Compound concentration 1000.0 nM
[20] = target: Serine/threonine-protein kinase RIO3 (Homo sapiens) (UniProt O14730); details: Compound concentration 1000.0 nM
[21] = target: Serine/threonine-protein kinase MARK2 (Homo sapiens) (UniProt Q7KZI7); details: Compound concentration 1000.0 nM
[22] = target: Serine/threonine-protein kinase ULK3 (Homo sapiens) (UniProt Q6PHR2); details: Compound concentration 1000.0 nM
[23] = target: Atypical kinase COQ8B, mitochondrial (Homo sapiens) (UniProt Q96D53); details: Compound concentration 1000.0 nM
[24] = target: Serine/threonine-protein kinase 32B (Homo sapiens) (UniProt Q9NY57); details: Compound concentration 1000.0 nM
[25] = target: Phosphatidylinositol 4,5-bisphosphate 3-kinase catalytic subunit gamma isoform (Homo sapiens) (UniProt P48736); details: Compound concentration 1000.0 nM
[26] = target: NUAK family SNF1-like kinase 1 (Homo sapiens) (UniProt O60285); details: Compound concentration 1000.0 nM
[27] = tested on: Receptor-type tyrosine-protein kinase FLT3 (Homo sapiens), P36888 [D835Y]; details: Compound concentration 1000.0 nM
[28] = target: Serine/threonine-protein kinase tousled-like 2 (Homo sapiens) (UniProt Q86UE8); details: Compound concentration 1000.0 nM
[29] = target: Mitogen-activated protein kinase kinase kinase kinase 1 (Homo sapiens) (UniProt Q92918); details: Compound concentration 1000.0 nM
[30] = tested on: Phosphatidylinositol 4,5-bisphosphate 3-kinase catalytic subunit alpha isoform (Homo sapiens), P42336 [I800L]; details: Compound concentration 1000.0 nM
[31] = target: 5-hydroxytryptamine receptor 2C (Homo sapiens) (UniProt P28335); details: Compound concentration 10.0 uM
[32] = target: Vascular endothelial growth factor receptor 3 (Homo sapiens) (UniProt P35916); details: Compound concentration 1000.0 nM
[33] = target: Inhibitor of nuclear factor kappa-B kinase subunit epsilon (Homo sapiens) (UniProt Q14164); details: Compound concentration 1000.0 nM
[34] = target: Misshapen-like kinase 1 (Homo sapiens) (UniProt Q8N4C8); details: Compound concentration 1000.0 nM
[35] = target: Discoidin domain-containing receptor 2 (Homo sapiens) (UniProt Q16832); details: Compound concentration 1000.0 nM
[36] = target: Casein kinase I isoform alpha (Homo sapiens) (UniProt P48729); details: Compound concentration 1000.0 nM
[37] = target: Tyrosine-protein kinase HCK (Homo sapiens) (UniProt P08631); details: Compound concentration 1000.0 nM
[38] = target: Muscle, skeletal receptor tyrosine-protein kinase (Homo sapiens) (UniProt O15146); details: Compound concentration 1000.0 nM
[39] = target: Sodium-dependent noradrenaline transporter (Homo sapiens) (UniProt P23975); details: Compound concentration 10.0 uM
[40] = target: Mitogen-activated protein kinase kinase kinase 11 (Homo sapiens) (UniProt Q16584); details: Compound concentration 1000.0 nM
[41] = target: Cyclin-dependent kinase 19 (Homo sapiens) (UniProt Q9BWU1); details: Compound concentration 1000.0 nM
[42] = target: Phosphatidylinositol 3-kinase C2 domain-containing subunit gamma (Homo sapiens) (UniProt O75747); details: Compound concentration 1000.0 nM
[43] = target: cAMP-dependent protein kinase catalytic subunit PRKX (Homo sapiens) (UniProt P51817); details: Compound concentration 1000.0 nM
[44] = target: Beta-2 adrenergic receptor (Homo sapiens) (UniProt P07550); details: Compound concentration 10.0 uM
[45] = target: Cyclin-dependent kinase-like 5 (Homo sapiens) (UniProt O76039); details: Compound concentration 1000.0 nM

Tyrosine-protein kinase Fgr (Homo sapiens), sequence (P09769 2-529 limits assumed): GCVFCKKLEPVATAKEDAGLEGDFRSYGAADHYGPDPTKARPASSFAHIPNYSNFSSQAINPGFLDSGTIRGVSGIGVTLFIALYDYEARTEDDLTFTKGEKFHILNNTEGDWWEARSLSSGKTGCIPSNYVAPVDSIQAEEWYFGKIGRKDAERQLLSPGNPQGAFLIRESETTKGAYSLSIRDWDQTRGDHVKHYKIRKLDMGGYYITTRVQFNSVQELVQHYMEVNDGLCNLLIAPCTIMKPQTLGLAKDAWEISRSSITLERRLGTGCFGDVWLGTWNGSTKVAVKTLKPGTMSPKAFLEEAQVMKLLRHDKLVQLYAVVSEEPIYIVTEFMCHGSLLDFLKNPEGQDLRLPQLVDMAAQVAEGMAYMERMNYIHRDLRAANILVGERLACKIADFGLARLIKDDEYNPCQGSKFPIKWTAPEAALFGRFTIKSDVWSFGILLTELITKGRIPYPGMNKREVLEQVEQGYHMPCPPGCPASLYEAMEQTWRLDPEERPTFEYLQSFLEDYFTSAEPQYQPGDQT
Inhibitor of nuclear factor kappa-B kinase subunit epsilon (Homo sapiens), sequence (Q14164 whole entry): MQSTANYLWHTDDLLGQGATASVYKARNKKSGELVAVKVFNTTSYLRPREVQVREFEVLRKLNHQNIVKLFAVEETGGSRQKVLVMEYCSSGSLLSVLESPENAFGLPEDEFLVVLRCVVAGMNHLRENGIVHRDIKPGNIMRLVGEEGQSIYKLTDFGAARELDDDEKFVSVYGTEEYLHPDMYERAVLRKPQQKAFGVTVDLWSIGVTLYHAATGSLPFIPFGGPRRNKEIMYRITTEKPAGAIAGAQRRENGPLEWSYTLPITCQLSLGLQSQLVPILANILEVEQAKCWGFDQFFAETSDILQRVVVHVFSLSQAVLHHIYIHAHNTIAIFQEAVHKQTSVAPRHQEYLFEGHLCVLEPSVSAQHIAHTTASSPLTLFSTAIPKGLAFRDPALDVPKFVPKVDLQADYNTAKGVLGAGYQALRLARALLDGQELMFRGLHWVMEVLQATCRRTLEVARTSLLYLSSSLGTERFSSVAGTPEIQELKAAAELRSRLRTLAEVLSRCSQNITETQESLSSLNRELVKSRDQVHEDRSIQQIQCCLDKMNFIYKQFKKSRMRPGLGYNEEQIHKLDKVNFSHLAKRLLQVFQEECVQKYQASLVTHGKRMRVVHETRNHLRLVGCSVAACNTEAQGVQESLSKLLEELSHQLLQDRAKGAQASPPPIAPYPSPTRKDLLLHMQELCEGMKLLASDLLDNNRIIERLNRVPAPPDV
Calcium/calmodulin-dependent protein kinase type IV (Homo sapiens), sequence (Q16566 whole entry): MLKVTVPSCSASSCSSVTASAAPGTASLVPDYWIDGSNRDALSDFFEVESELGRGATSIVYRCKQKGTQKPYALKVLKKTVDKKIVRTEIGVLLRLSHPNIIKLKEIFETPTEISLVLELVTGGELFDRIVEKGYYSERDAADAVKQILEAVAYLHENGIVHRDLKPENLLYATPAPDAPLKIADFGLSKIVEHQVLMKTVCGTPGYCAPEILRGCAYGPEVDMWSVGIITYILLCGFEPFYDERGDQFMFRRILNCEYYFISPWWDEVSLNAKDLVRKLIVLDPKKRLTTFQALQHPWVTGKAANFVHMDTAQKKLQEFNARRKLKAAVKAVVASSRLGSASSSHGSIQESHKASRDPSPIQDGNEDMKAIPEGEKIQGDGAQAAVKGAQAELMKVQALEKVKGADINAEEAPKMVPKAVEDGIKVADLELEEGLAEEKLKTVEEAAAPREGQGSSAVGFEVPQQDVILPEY
Tyrosine-protein kinase HCK (Homo sapiens), sequence (P08631 2-526 limits assumed): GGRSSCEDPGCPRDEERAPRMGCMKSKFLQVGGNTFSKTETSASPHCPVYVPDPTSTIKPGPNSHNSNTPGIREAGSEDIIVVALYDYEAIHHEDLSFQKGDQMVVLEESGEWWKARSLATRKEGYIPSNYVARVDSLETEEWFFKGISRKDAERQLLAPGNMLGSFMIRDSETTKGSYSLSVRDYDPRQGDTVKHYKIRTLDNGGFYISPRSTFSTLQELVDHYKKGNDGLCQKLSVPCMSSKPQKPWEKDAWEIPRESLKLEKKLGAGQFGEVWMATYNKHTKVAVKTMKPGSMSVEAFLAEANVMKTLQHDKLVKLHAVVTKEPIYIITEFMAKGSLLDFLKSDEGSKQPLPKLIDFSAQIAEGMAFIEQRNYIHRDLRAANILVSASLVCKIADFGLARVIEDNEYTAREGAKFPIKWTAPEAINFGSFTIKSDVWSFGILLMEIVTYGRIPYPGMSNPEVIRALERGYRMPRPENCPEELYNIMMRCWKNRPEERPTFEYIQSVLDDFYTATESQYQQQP
Serine/threonine-protein kinase WNK3 (Homo sapiens), sequence (Q9BYP7 whole entry): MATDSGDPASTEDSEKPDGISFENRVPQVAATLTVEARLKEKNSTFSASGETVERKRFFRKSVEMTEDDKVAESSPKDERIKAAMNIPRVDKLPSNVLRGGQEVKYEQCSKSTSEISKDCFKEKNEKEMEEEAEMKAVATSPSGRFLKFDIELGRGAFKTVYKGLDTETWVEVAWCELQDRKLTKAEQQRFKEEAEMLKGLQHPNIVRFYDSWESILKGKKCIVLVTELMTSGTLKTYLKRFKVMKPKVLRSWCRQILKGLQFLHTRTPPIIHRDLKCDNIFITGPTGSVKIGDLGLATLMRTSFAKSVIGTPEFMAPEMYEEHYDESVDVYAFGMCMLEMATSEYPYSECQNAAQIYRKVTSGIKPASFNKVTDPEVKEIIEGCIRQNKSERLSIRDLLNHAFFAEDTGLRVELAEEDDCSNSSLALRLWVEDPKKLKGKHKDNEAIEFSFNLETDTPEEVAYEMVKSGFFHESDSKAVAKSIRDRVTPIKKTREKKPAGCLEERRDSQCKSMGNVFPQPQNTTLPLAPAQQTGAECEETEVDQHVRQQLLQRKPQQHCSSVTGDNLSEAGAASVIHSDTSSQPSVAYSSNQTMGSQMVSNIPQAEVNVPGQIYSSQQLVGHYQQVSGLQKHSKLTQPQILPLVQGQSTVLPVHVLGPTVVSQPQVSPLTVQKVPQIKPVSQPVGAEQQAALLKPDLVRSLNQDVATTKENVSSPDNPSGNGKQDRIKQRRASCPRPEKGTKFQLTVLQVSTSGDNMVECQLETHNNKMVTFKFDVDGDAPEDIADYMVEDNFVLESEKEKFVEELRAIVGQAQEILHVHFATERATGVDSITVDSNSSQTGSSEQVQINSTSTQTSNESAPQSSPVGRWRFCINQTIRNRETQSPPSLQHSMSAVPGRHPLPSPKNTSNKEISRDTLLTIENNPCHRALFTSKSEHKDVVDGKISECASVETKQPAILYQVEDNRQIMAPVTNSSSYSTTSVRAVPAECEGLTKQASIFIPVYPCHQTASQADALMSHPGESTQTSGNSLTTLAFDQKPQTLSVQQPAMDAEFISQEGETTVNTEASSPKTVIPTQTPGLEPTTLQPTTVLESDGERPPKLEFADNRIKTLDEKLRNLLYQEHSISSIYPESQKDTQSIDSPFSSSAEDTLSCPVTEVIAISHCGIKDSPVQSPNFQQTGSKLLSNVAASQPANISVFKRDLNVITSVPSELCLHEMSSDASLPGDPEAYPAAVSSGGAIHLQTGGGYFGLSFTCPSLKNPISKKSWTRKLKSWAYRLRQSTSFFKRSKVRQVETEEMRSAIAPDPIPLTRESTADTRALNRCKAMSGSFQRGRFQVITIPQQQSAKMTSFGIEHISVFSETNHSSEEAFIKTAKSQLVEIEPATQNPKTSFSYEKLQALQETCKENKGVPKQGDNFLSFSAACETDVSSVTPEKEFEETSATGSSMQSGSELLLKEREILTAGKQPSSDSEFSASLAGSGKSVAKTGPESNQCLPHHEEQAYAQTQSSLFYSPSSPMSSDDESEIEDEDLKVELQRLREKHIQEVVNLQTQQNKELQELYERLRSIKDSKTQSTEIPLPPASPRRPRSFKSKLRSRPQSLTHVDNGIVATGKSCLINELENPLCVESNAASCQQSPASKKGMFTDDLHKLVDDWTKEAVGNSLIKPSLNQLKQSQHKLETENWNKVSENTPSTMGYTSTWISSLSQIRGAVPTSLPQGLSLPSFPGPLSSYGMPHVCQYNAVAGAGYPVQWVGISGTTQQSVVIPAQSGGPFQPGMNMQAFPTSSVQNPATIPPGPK
Serine/threonine-protein kinase tousled-like 2 (Homo sapiens), sequence (Q86UE8 whole entry, looked up): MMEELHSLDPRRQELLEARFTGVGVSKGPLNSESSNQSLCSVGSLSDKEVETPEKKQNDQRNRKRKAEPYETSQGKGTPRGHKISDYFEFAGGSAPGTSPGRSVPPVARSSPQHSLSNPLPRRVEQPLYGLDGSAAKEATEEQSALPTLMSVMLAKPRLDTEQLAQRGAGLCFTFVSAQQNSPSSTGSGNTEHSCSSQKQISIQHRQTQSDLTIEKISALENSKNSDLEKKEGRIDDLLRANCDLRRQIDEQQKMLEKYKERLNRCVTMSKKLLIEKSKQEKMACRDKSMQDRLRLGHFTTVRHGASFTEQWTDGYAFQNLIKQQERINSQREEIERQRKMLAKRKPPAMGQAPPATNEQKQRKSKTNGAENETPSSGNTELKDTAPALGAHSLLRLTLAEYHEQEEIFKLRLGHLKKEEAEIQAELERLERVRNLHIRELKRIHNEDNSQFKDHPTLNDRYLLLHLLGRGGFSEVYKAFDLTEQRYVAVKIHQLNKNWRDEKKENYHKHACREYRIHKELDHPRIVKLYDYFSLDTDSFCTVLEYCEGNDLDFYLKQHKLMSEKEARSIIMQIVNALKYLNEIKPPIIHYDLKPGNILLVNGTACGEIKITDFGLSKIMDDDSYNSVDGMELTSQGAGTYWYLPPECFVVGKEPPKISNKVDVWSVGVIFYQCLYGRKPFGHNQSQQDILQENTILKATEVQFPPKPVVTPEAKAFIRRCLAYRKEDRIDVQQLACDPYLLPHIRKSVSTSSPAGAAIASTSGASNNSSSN

O=C(O)[C@@H]1[C@@H](Cn2nnc3ccccc3c2=O)CC[C@H]1C(=O)c1ccc(OCCC2CCOCC2)cc1 [BAY-694]
residual activity [1]: 93%
residual activity [2]: 100%
residual activity [3]: 87%
residual activity [4]: 94%
residual activity [5]: 58%
residual activity [6]: 75%
residual activity [7]: 100%
residual activity [8]: 95%
residual activity [9]: 95%
inhibition [10]: 18.4%
residual activity [11]: 100%
residual activity [12]: 100%
residual activity [13]: 100%
residual activity [14]: 100%
residual activity [15]: 100%
residual activity [16]: 100%
residual activity [17]: 100%
residual activity [18]: 86%
residual activity [19]: 100%
residual activity [20]: 100%
residual activity [21]: 100%
residual activity [22]: 100%
residual activity [23]: 64%
residual activity [24]: 100%
residual activity [25]: 100%
residual activity [26]: 84%
residual activity [27]: 100%
residual activity [28]: 93%
residual activity [29]: 91%
residual activity [30]: 34%
inhibition [31]: 21%
residual activity [32]: 100%
residual activity [33]: 100%
residual activity [34]: 100%
residual activity [35]: 100%
residual activity [36]: 97%
residual activity [37]: 100%
residual activity [38]: 100%
inhibition [39]: -7.25%
residual activity [40]: 92%
residual activity [41]: 100%
residual activity [42]: 95%
residual activity [43]: 100%
inhibition [44]: 24.4%
residual activity [45]: 96%

O=C(O)[C@H]1[C@H](Cn2nnc3ccccc3c2=O)CC[C@@H]1C(=O)c1ccc(OCCC2CCOCC2)cc1 [BAY-7598]
residual activity [1]: 75%
residual activity [2]: 99%
residual activity [3]: 100%
residual activity [4]: 100%
residual activity [5]: 53%
residual activity [6]: 78%
residual activity [7]: 100%
residual activity [8]: 100%
residual activity [9]: 83%
inhibition [10]: 16.2%
residual activity [11]: 100%
residual activity [12]: 89%
residual activity [13]: 65%
residual activity [14]: 86%
residual activity [15]: 100%
residual activity [16]: 100%
residual activity [17]: 100%
residual activity [18]: 100%
residual activity [19]: 78%
residual activity [20]: 79%
residual activity [21]: 100%
residual activity [22]: 85%
residual activity [23]: 87%
residual activity [24]: 100%
residual activity [25]: 90%
residual activity [26]: 71%
residual activity [27]: 96%
residual activity [28]: 98%
residual activity [29]: 87%
residual activity [30]: 73%
inhibition [31]: 22.4%
residual activity [32]: 81%
residual activity [33]: 90%
residual activity [34]: 100%
residual activity [35]: 100%
residual activity [36]: 82%
residual activity [37]: 70%
residual activity [38]: 95%
inhibition [39]: -0.42%
residual activity [40]: 92%
residual activity [41]: 100%
residual activity [42]: 99%
residual activity [43]: 93%
inhibition [44]: 8.44%
residual activity [45]: 85%
